Data published in EP2650284A1, “Heterocyclic derivatives as metabotropic glutamate receptor modulators” (Merz Pharma GmbH & Co. KGaA, priority 2012, dated 2013).

Target: T1, mGluR5 receptors (Rattus norvegicus, UniProt P31424)
T1 construct: Primary astrocyte cultures are prepared from cortices of newborn rats; endogenous in cells; host or cells: primary cortical astrocytes from Sprague-Dawley rat pups (2-4 d old)
Test: Cytosolic calcium studies with astrocytes (FLIPR), functional assay of mGluR5 receptors
Type: cell-based
Details: for EC50: Table A1, positive modulators, fixed concentration of quisqualate (normally 10-30 nM), read-out: rEC50
Summary of the method: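 Rat cortical primary astrocytes at 14-15 DIV, loaded with Ca-sensitive dye for 2 h at RT, pH 7.3 buffer; FLIPR fluorescence after L-quisqualate (100 nM), antagonists pre-incubated 10 min. PAMs: quisqualate curves ± 10 µM modulator, or modulator curves at fixed 10-30 nM quisqualate. Max-min responses as % control, logistic fit.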

[1] = Table A3 (SAMs / very weak PAMs), quisqualate EC50 shift with 10 µM modulator
[2] = Table A1, left shift of quisqualate EC50 in the presence and absence of 10 µM modulator

T1 sequence (P31424 21-1203): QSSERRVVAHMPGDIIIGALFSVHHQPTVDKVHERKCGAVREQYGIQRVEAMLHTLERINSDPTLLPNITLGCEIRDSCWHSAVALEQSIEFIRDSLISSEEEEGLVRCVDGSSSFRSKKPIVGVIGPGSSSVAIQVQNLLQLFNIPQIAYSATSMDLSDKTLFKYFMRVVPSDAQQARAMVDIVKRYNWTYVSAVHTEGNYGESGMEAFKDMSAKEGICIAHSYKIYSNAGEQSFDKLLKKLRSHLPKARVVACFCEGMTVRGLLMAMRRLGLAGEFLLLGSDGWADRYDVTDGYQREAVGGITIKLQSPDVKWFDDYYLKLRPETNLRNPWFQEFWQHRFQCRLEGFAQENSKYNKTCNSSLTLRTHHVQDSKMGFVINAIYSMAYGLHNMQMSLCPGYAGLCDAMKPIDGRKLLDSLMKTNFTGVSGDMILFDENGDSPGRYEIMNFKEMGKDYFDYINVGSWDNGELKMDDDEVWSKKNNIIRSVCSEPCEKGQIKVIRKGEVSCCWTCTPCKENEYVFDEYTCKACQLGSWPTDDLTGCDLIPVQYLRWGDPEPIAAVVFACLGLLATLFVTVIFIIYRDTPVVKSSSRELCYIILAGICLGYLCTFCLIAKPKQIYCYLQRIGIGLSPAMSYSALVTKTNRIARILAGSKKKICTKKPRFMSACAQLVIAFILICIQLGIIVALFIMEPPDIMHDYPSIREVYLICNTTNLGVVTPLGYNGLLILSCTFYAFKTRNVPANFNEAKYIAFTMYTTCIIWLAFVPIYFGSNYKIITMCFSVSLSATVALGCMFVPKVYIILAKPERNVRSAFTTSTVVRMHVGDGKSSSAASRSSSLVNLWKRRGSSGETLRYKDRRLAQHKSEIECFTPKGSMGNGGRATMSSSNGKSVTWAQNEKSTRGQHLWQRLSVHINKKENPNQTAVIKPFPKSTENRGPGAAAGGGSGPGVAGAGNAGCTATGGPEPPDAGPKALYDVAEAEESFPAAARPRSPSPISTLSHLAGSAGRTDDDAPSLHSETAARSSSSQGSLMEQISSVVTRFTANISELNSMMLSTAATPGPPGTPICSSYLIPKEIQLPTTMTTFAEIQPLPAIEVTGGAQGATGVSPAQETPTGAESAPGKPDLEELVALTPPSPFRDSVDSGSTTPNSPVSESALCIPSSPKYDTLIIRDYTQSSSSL

Row | SMILES | r left shift [1] | r left shift [2] | EC50
1 | CCCN1CCO[C@@H]2c3cc(C#Cc4cccc(C)c4)cnc3CC[C@@H]21 (racemic) [Example 21, (rac)-cis-4-Propyl-9-(m-tolylethynyl)-3,4,4a,5,6,10b-hexahydro-2H-[1,4]oxazino[2,3-f]quinoline] | 1.9-fold |  | 
2 | COC(=O)N1CC[C@H]2CCc3ncc(C#Cc4ccccc4)cc3[C@H]21 (racemic) [Example 29, (rac)-cis-Methyl 8-(phenylethynyl)-2,3,3a,4,5,9b-hexahydro-1H-pyrrolo[2,3-f]quinoline-1-carboxylate] | 0.8-fold |  | 
3 | CCCN1CC2(CCCc3ncc(C#Cc4cccc(C)c4)cc32)OC1=O (racemic) [Example 64, (rac)-3-Propyl-3'-(m-tolylethynyl)-7',8'-dihydro-6'H-spiro[oxazolidine-5,5'-quinolin]-2-one] | 0.9-fold |  | 
4 | CCCN1CC2(CCCc3ncc(C#Cc4cccc(F)c4)cc32)OC1=O (racemic) [Example 66, (rac)-3'-((3-Fluorophenyl)ethynyl)-3-propyl-7',8'-dihydro-6'H-spiro[oxazolidine-5,5'-quinolin]-2-one] | 1.3-fold |  | 
5 | COC1CCCc2ncc(C#Cc3ccccc3)cc21 (single isomer, unassigned) [Example 2, 5-Methoxy-3-(phenylethynyl)-5,6,7,8-tetrahydroquinoline] | 4.4-fold | 4.4-fold | 12.5 nM
6 | CCCN1CCO[C@@H]2c3cc(C#Cc4ccccc4)cnc3CC[C@@H]21 (single isomer, unassigned) [Example 17, cis-9-(Phenylethynyl)-4-propyl-3,4,4a,5,6,10b-hexahydro-2H-[1,4]oxazino[2,3-f]quinoline] | 3.5-fold | 3.5-fold | 67 nM
7 | CC(C)C(=O)N1CCc2ncc(C#Cc3ccccc3)cc2C1 [Example 33, 2-Methyl-1-(3-(phenylethynyl)-7,8-dihydro-1,6-naphthyridin-6(5H)-yl)propan-1-one] | 1.3-fold |  | 
8 | CCOC(=O)N1CCc2ncc(C#Cc3ccccc3)cc2C1 [Example 40, Ethyl 3-(phenylethynyl)-7,8-dihydro-1,6-naphthyridine-6(5H)-carboxylate] | 1.6-fold |  | 
